According to patent publication US20130184222A1, “[…] ACTIVE COMPOSITIONS AND THEIR METHODS OF USE” (AGIOS PHARMACEUTICALS, INC, priority 2010, published 2013):

Assays:
[1] = system: HT1080 cells; test: Cellular assay: inhibition of 2-HG production in HT1080 cells (LC-MS, 48 hours); format: cell-based; conditions: Homo sapiens, HT-1080, 2-HG in media by LC-MS
Method: (§1) Cells (HT1080 or U87MG) were grown in T125 flasks in DMEM containing 10% FBS, 1× penicillin/streptomycin and 500 ug/mL G418 (present in U87MG cells only). They were harvested by trypsin and seeded into 96 well white bottom plates at a density of 5000 cell/well in 100 ul/well in DMEM with 10% FBS. No cells were placed in columns 1 and 12. Cells were incubated overnight at 37° C. in 5% CO2. The next day test compounds were made up at 2× the final concentration and 100 ul were added to each cell well. The final concentration of DMSO was 0.2% and the DMSO control wells were plated in row G. The plates were then placed in the incubator for 48 hours. At 48 hours, 100 ul of media was removed from each well and analyzed by LC-MS for 2-HG concentrations. The cell plate was placed back in the incubator for another 24 hours. At 72 hours post compound addition, 10 mL/plate of Promega Cell Titer Glo reagent was thawed and mixed. The cell plate was removed from the incubator and allowed to equilibrate to room temperature. Then 100 ul of Promega Cell Titer Glo reagent was added to each well of media. The cell plate was then placed on an orbital shaker for 10 minutes and then allowed to sit at room temperature for 20 minutes. The plate was then read for luminescence with an integration time of 500 ms.

[2] = system: U87MG cells; test: Cellular assay: inhibition of 2-HG production in U87MG cells (LC-MS, 48 hours); format: cell-based; conditions: Homo sapiens, U-87 MG, 2-HG in media by LC-MS
Method: as §1

[3] = biological target: IDH1 R132H (Homo sapiens, UniProt O75874, R132H); test: In vitro assay for IDH1 R132H inhibitors (NADPH/aKG, resazurin detection); format: biochemical; conditions: Table 4B; 0.2 μg/ml IDH1 R132H, 50 minutes at room temperature; read-out: IC50, IDH1 R132H Inhibition
Summary of the method: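 Reaction ran 50 min at room temperature in Tris pH 7.5 buffer with 150 mM NaCl, 10 mM MgCl2 and 0.03% BSA. Mix concentrations were 0.2 μg/ml mutant enzyme, 8 uM NADPH and 2 mM aKG. Detection added 30 μM resazurin, with resorufin fluorescence (Ex544/Em590) measured 5 min later.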

Sequence of IDH1 R132H (O75874 whole entry R132H): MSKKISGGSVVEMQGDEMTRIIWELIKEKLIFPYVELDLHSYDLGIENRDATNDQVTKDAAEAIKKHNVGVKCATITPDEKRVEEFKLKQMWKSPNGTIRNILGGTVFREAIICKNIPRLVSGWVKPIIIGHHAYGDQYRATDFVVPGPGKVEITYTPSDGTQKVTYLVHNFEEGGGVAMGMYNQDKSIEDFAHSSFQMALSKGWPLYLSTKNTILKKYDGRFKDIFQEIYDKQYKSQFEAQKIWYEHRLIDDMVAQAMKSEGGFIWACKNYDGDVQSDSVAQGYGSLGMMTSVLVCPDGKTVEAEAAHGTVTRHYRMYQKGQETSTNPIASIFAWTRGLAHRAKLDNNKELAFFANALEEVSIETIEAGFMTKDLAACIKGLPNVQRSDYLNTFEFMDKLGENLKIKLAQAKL

Compound	IC50 [1] [nM]	IC50 [2] [nM]	IC50 [3] [nM]
Cc1ccccc1C(C(=O)NC1CCCCC1)N(Cc1cccs1)C(=O)CN1Cc2cccnc2C1 (stereo not drawn) [Compound 206]	1000 to 5000	1000 to 5000	100 to 1000
COC(=O)N1CCN(CC(=O)N(Cc2cccs2)C(C(=O)NC2CCCCC2)c2ccccc2C)CC1 (stereo not drawn) [Compound 208]	1000 to 5000	1000 to 5000	100 to 1000
COc1ccc(NCC(=O)N(c2cccc(F)c2)C(C(=O)NC2CCCCC2)c2ccccc2C)cc1 (stereo not drawn) [Compound 210]	1000 to 5000	1000 to 5000	≤ 100
Cc1ccccc1C(C(=O)NCC1CCCCC1)N(C(=O)Cc1cccs1)c1cccc(F)c1 (stereo not drawn) [Compound 211]	1000 to 5000	1000 to 5000	100 to 1000
Cc1ccccc1C(C(=O)NC1CCCCC1)N(C(=O)c1ccc(O)cc1)c1cccc(F)c1 (stereo not drawn) [Compound 216]	1000 to 5000	250 to 1000	100 to 1000
COc1ccc(CNCC(=O)N(c2cccc(F)c2)C(C(=O)NC2CCCCC2)c2ccccc2C)cc1 (stereo not drawn) [Compound 219]	1000 to 5000	1000 to 5000	100 to 1000
COc1ccccc1CNCC(=O)N(c1cccc(F)c1)C(C(=O)NC1CCCCC1)c1ccccc1C (stereo not drawn) [Compound 220]	1000 to 5000	1000 to 5000	100 to 1000
COc1cccc(CNCC(=O)N(c2cccc(F)c2)C(C(=O)NC2CCCCC2)c2ccccc2C)c1 (stereo not drawn) [Compound 221]	1000 to 5000	1000 to 5000	100 to 1000
Cc1ccccc1C(C(=O)NC1CCCCC1)N(C(=O)Cn1ccnc1C)c1cccc(NC(=O)OC(C)(C)C)c1 (stereo not drawn) [Compound 225]	1000 to 5000	≤ 250	100 to 1000
Cc1ccccc1C(C(=O)NC1CCCCC1)N(C(=O)Cn1ccnc1C)c1cccc(N)c1 (stereo not drawn) [Compound 226]	1000 to 5000	≤ 250	100 to 1000
Cc1ccccc1C(C(=O)NC1CCCCC1)N(C(=O)COC1CCCC1)c1cccc(F)c1 (stereo not drawn) [Compound 230]	1000 to 5000	1000 to 5000	100 to 1000
Cc1ccccc1C(C(=O)NC1CCCCC1)N(C(=O)Cn1ccnc1C)c1cccc(N2CCOCC2)c1 (stereo not drawn) [Compound 231]	1000 to 5000	≤ 250	100 to 1000
Cc1ccccc1C(C(=O)NC1CCCCC1)N(C(=O)Cn1ccnc1C)c1cccc(N2CCN(C(=O)OC(C)(C)C)CC2)c1 (stereo not drawn) [Compound 232]	1000 to 5000	≤ 250	100 to 1000
CC(=O)Nc1cccc(N(C(=O)Cn2ccnc2C)C(C(=O)NC2CCCCC2)c2ccccc2C)c1 (stereo not drawn) [Compound 236]	> 5000	1000 to 5000	100 to 1000
Cc1ccccc1C(C(=O)NC1CCCCC1)N(C(=O)Cc1c[nH]c2ccccc12)c1ccn(C)n1 (stereo not drawn) [Compound 238]	250 to 1000	1000 to 5000	100 to 1000
Cc1nccn1CC(=O)N(c1cccc(F)c1)[C@H](C(=O)NC1CCCCC1)c1ccccc1 [Compound 239]	250 to 1000	≤ 250	100 to 1000
Cc1ccccc1C(C(=O)NC1CCCCC1)N(C(=O)Cn1ccc(F)cc1=N)c1cccc(F)c1 (stereo not drawn) [Compound 240]	250 to 1000	1000 to 5000	≤ 100
COC(=O)Nc1cccc(N(C(=O)Cn2ccnc2C)C(C(=O)NC2CCCCC2)c2ccccc2C)c1 (stereo not drawn) [Compound 241]	1000 to 5000	250 to 1000	100 to 1000
Cc1ccccc1C(C(=O)NC1CCCCC1)N(C(=O)Cc1cn(C)c2ccccc12)c1cccc(F)c1 (stereo not drawn) [Compound 243]	250 to 1000	250 to 1000	100 to 1000
Cc1ccccc1C(C(=O)NC1CCCCC1)N(C(=O)Cc1cn(C)c2ccccc12)c1ccn(C)n1 (stereo not drawn) [Compound 244]	250 to 1000	1000 to 5000	100 to 1000
Cc1ccccc1C(C(=O)NC1CCCCC1)N(C(=O)CN1CCCc2ccccc21)c1ccn(C)n1 (stereo not drawn) [Compound 245]	250 to 1000	1000 to 5000	100 to 1000
Cc1ccccc1C(C(=O)NC1CCCCC1)N(C(=O)Cn1ccnc1C)c1ccn(C)n1 (stereo not drawn) [Compound 246]	1000 to 5000	250 to 1000	100 to 1000
Cc1ccccc1C(C(=O)NC1CCCCC1)N(C(=O)CN1CCN(C(=O)O[C@H]2CCOC2)CC1)c1cccc(F)c1 (stereo partly drawn) [Compound 248]	1000 to 5000	1000 to 5000	100 to 1000
CCOC(=O)N1CCN(CC(=O)N(c2cccc(F)c2)C(C(=O)NC2CCCCC2)c2ccccc2C)CC1 (stereo not drawn) [Compound 249]	250 to 1000	250 to 1000	100 to 1000
Cc1ccccc1C(C(=O)NC1CCCCC1)N(C(=O)CN1CCN(C(=O)OC(C)C)CC1)c1cccc(F)c1 (stereo not drawn) [Compound 250]	1000 to 5000	1000 to 5000	100 to 1000
Cc1ccccc1C(C(=O)NC1CCCCC1)N(C(=O)CO[C@H]1CCOC1)c1cccc(F)c1 (stereo partly drawn) [Compound 251]	250 to 1000	250 to 1000	100 to 1000
Cc1ccccc1C(C(=O)NC1CCCCC1)N(C(=O)Cn1ccc2ncccc21)c1cccc(F)c1 (stereo not drawn) [Compound 252]	1000 to 5000	250 to 1000	100 to 1000
Cc1ccccc1C(C(=O)NC1CCCCC1)N(C(=O)CNCc1cnccn1)c1cccc(F)c1 (stereo not drawn) [Compound 254]	1000 to 5000	1000 to 5000	100 to 1000

Now from value to molecule:

IC50 [1] [nM]	IC50 [2] [nM]	IC50 [3] [nM]	Compound
≤ 250	250 to 1000	100 to 1000	Cc1ccccc1C(C(=O)NC1CCCCC1)N(C(=O)CN1Cc2cccnc2C1)c1cccc(F)c1 (stereo not drawn) [Compound 209]
≤ 250	≤ 250	≤ 100	CC(=O)Oc1ccc(CC(=O)N(c2cccc(F)c2)C(C(=O)NC2CCCCC2)c2ccccc2C)cc1 (stereo not drawn) [Compound 212]
250 to 1000	250 to 1000	≤ 100	Cc1ccccc1C(C(=O)NC1CCCCC1)N(Cc1cccs1)C(=O)Cc1c[nH]c2ncccc12 (stereo not drawn) [Compound 213]
250 to 1000	250 to 1000	100 to 1000	CC(=O)Oc1ccc(C(=O)N(c2cccc(F)c2)C(C(=O)NC2CCCCC2)c2ccccc2C)cc1 (stereo not drawn) [Compound 215, Acetic acid 4-[(cyclohexylcarbamoyl-o-tolyl-methyl)-(3-fluoro-phenyl)-carbamoyl]-phenyl ester]
≤ 250	≤ 250	≤ 100	Cc1ccccc1C(C(=O)NC1CCCCC1)N(C(=O)Cc1ccc(O)cc1)c1cccc(F)c1 (stereo not drawn) [Compound 217, N-Cyclohexyl-2-{(3-fluoro-phenyl)-[2-(4-hydroxy-phenyl)-acetyl]-amino}-2-o-tolyl-acetamide]
250 to 1000	250 to 1000	≤ 100	COc1ccccc1NCC(=O)N(c1cccc(F)c1)C(C(=O)NC1CCCCC1)c1ccccc1C (stereo not drawn) [Compound 218]
250 to 1000	1000 to 5000	100 to 1000	Cc1ccccc1C(C(=O)NC1CCCCC1)N(C(=O)COCc1ccccc1F)c1cccc(F)c1 (stereo not drawn) [Compound 222]
250 to 1000	≤ 250	100 to 1000	Cc1ccccc1C(C(=O)NC1CCCCC1)N(C(=O)Cn1ccnc1C)c1cccc(-c2cnn(C)c2)c1 (stereo not drawn) [Compound 223]
250 to 1000	250 to 1000	100 to 1000	Cc1ccccc1C(C(=O)NC1CCCCC1)N(C(=O)Cn1c(C)nc2ccccc21)c1ccn(C)n1 (stereo not drawn) [Compound 224]
≤ 250	≤ 250	≤ 100	Cc1ccccc1C(C(=O)NC1CCCCC1)N(C(=O)CNc1ccc(C#N)cc1)c1cccc(F)c1 (stereo not drawn) [Compound 227]
250 to 1000	250 to 1000	≤ 100	Cc1ccccc1C(C(=O)NC1CCCCC1)N(Cc1cccs1)C(=O)CNc1ccc(C#N)cc1 (stereo not drawn) [Compound 228]
250 to 1000	1000 to 5000	100 to 1000	Cc1ccccc1C(C(=O)NC1CCCCC1)N(C(=O)COCc1ccncc1)c1cccc(F)c1 (stereo not drawn) [Compound 229]
250 to 1000	1000 to 5000	100 to 1000	Cc1ccccc1C(C(=O)NC1CCCCC1)N(C(=O)COCc1cccnc1)c1cccc(F)c1 (stereo not drawn) [Compound 233]
250 to 1000	1000 to 5000	≤ 100	Cc1ccccc1C(C(=O)NC1CCCCC1)N(C(=O)CNc1ccc(F)nc1)c1cccc(F)c1 (stereo not drawn) [Compound 237]
≤ 250	250 to 1000	≤ 100	COc1cccc(NCC(=O)N(c2cccc(F)c2)C(C(=O)NC2CCCCC2)c2ccccc2C)c1 (stereo not drawn) [Compound 247]
≤ 250	250 to 1000	≤ 100	Cc1ccccc1C(C(=O)NC1CCCCC1)N(C(=O)CNc1ccc(F)cn1)c1cccc(F)c1 (stereo not drawn) [Compound 253]
≤ 250	250 to 1000	100 to 1000	Cc1ccccc1C(C(=O)NC1CCCCC1)N(C(=O)Cn1cnc2ccccc21)c1ccn(C)n1 (stereo not drawn) [Compound 255]
